Results from patent US7829567B2, “Imino-indeno[1,2-c] quinoline derivatives, their preparation processes, and pharmaceutical compositions comprising the same” (Kaohsiung Medical University, priority 2007, dated 2010).
Like-named read-outs stand apart in the source and are kept apart here.

Columns and labels:
Format in all cases: cell-based
[1] = system: hepatocellular carcinoma (SKHep1); assay: In vitro anticancer assay (MTT), SKHep1; settings: 48 hrs, mean ± spread, read-out: Anti-proliferative evaluation IC50, SKHep1
Experimental: (§1) The resultant tetrazolium salt was then dissolved by the addition of dimethyl sulfoxide. Color was measured spectrophotometrically in a microtiter plate reader at 570 nm and used as a relative measure of viable cell number. The number of viable cells after treatment was compared to solvent and untreated control cells and used to determine the percent of control growth as (Abtreated/Abcontrol)×100, where Ab represents the mean absorbance (n=3). […] D. Heo et al. […] (+)-camptothecin (CPT) and doxorubicin hydrochloride (Dox) were used for comparison with the compounds according to this invention.

[2] = system: human stomach adenocarcinoma (AGS); assay: In vitro anticancer assay (MTT), AGS; settings: AGS cells, 48 hrs, mean ± spread, read-out: Anti-proliferative evaluation IC50, AGS
Experimental: as §1

[3] = system: oral squamous cell carcinoma (SAS); assay: In vitro anticancer assay (MTT), SAS; settings: SAS cells, 48 hrs, mean ± spread, read-out: Anti-proliferative evaluation IC50, SAS
Experimental: as §1

[4] = system: human cervical epithelioid carcinoma (HeLa); assay: In vitro anticancer assay (MTT), HeLa; settings: HeLa cells, 48 hrs, mean ± spread, read-out: Anti-proliferative evaluation IC50, HeLa
Experimental: as §1

[5] = system: human renal clear cell carcinoma; assay: In vitro anticancer assay (MTT), RCC 768-O; settings: RCC 768-O cells, 48 hrs, mean ± spread, read-out: Anti-proliferative evaluation IC50, RCC 768-O
Experimental: as §1

[6] = system: esophageal carcinoma (CE81T); assay: In vitro anticancer assay (MTT), CE81T; settings: CE81T cells, 48 hrs, mean ± spread, read-out: Anti-proliferative evaluation IC50, CE81T
Experimental: as §1

[7] = Homo sapiens, SK-HEP1, SKHep1 cells

Compound | IC50 [1, 7] | IC50 ([2]; Homo sapiens) | IC50 [3] | IC50 ([4]; Homo sapiens) | IC50 ([5]; Homo sapiens) | IC50 [6] | IC50 ([1]; SKHep1 cells) | IC50 [2] | IC50 [4] | IC50 [5]
COc1ccc2c(c1)C(=NOCCN1CCCC1)c1c-2c(N2CCNCC2)nc2ccccc12 [Compound 6u, 9-Methoxy-6-(piperazin-1-yl)-11H-indeno[1,2-c]quinolin-11-one O-2-(pyrrolidin-1-yl)ethyl oxime] | 0.7 ± 0.3 µM | 4.8 ± 1.3 µM | 2.4 ± 1.3 µM | 0.6 ± 0.2 µM | 2.6 ± 0.5 µM | 2.9 ± 1.7 µM | – | – | – | –
COc1ccc2c(c1)C(=O)c1c-2c(N2CCN(C(=O)CCNCCCN(C)C)CC2)nc2ccccc12 [Compound 5ccc] | – | – | 13.5 ± 2.2 µM | – | – | 9.4 ± 0.6 µM | 8.6 ± 0.7 µM | 2.8 ± 1.3 µM | 5.4 ± 1.3 µM | 5.9 ± 0.9 µM
COc1ccc2c(c1)C(=O)c1c-2c(N2CCN(C(=O)CN3CCOCC3)CC2)nc2ccccc12 [Compound 5uu] | – | – | > 30 µM | – | – | > 30 µM | 19.9 ± 10 µM | 21.4 ± 0.2 µM | 18 ± 8.1 µM | > 30 µM
CNCC(=O)N1CCN(c2nc3ccccc3c3c2-c2ccc(OC)cc2C3=O)CC1 [Compound 5kk] | – | – | 7.4 ± 0.9 µM | – | – | 2.3 ± 1.3 µM | 4.8 ± 2.1 µM | 7.2 ± 1.5 µM | 2 ± 0.6 µM | 6.2 ± 1.9 µM
COc1ccc2c(c1)C(=NOCC1CO1)c1c-2c(N2CCN(CC3CO3)CC2)nc2ccccc12 (stereo not drawn) [Compound 6y] | – | – | 6.2 ± 0.9 µM | – | – | 2 ± 1.2 µM | 1 ± 0.5 µM | 8.8 ± 4.1 µM | 0.5 ± 0.2 µM | 8.8 ± 2.2 µM
COc1ccc2c(c1)C(=NOCCN(C)C)c1c-2c(N2CCNCC2)nc2ccccc12 [Compound 6r, 9-Methoxy-6-(piperazin-1-yl)-11H-indeno[1,2-c]quinolin-11-one O-2-(dimethylamino)ethyl oxime] | 0.7 ± 0.2 µM | 6.8 ± 2 µM | 2.4 ± 1.2 µM | 0.5 ± 0.2 µM | 2 ± 1.9 µM | > 30 µM | – | – | – | –
COc1ccc2c(c1)C(=NOCCN1CCOCC1)c1c-2c(N2CCNCC2)nc2ccccc12 [Compound 6w] | – | – | 6.9 ± 1.3 µM | – | – | > 30 µM | 1 ± 0.4 µM | 5.8 ± 1.9 µM | 0.8 ± 0.2 µM | 4.1 ± 1.9 µM
COc1ccc2c(c1)C(=NOCCN1CCCCC1)c1c-2c(N2CCNCC2)nc2ccccc12 [Compound 6v, 9-Methoxy-6-(piperazin-1-yl)-11H-indeno[1,2-c]quinolin-11-one O-2-(piperidin-1-yl)ethyl oxime] | 1.6 ± 0.5 µM | 7.1 ± 0.8 µM | 5.8 ± 0.5 µM | 0.8 ± 0.3 µM | 4.5 ± 1.4 µM | > 30 µM | – | – | – | –
COc1ccc2c(c1)C(=NO)c1c-2c(N2CCN(C(=O)CCNCCN(C)C)CC2)nc2ccccc12 [Compound 6n, 3-[2-(Dimethylamino)ethylamino]-1-{4-[11-(hydroxyimino)-9-methoxy-11H-indeno[1,2-c]quinolin-6-yl]piperazin-1-yl}propan-1-one] | > 30 µM | 7.4 ± 1.2 µM | 7.3 ± 0.4 µM | > 30 µM | 5.6 ± 1.6 µM | > 30 µM | – | – | – | –
CON=C1c2cc(OC)ccc2-c2c(N3CCNCC3)nc3ccccc3c21 [Compound 6q] | – | – | 10.3 ± 0.5 µM | – | – | 7.2 ± 3.1 µM | 9.3 ± 2.9 µM | 5.2 ± 0.5 µM | 10.6 ± 4.4 µM | 8.3 ± 1.3 µM
COc1ccc2c(c1)C(=O)c1c-2c(N2CCN(CC(O)CN(C)C)CC2)nc2ccccc12 (stereo not drawn) [Compound 5mmm] | – | – | 6.9 ± 0.5 µM | – | – | 4.8 ± 4 µM | 2.2 ± 0.8 µM | 7.9 ± 3.8 µM | 2.5 ± 0.7 µM | 6.8 ± 0.1 µM
ON=C1c2ccccc2-c2c(N3CCNCC3)nc3ccccc3c21 [Compound 6i] | – | – | 7.3 ± 1.5 µM | – | – | 3.5 ± 2.7 µM | 4.6 ± 1.1 µM | 7.6 ± 1.4 µM | 5.1 ± 0.6 µM | 6.3 ± 1.3 µM
CON=C1c2cc(F)ccc2-c2c(N3CCNCC3)nc3ccccc3c21 [Compound 6l] | – | – | 7.9 ± 0.3 µM | – | – | 3.4 ± 0.3 µM | 5.9 ± 1.1 µM | 7.6 ± 3.4 µM | 4.9 ± 0.6 µM | 7 ± 0.7 µM
COc1ccc2c(c1)C(=O)c1c-2c(N2CCN(C(=O)CNCCN)CC2)nc2ccccc12 [Compound 5mm] | – | – | > 30 µM | – | – | > 30 µM | 14.9 ± 3.6 µM | 11.2 ± 1.5 µM | 8.7 ± 1.8 µM | 10.5 ± 1 µM
COc1ccc2c(c1)C(=O)c1c-2c(N2CCN(C(=O)CCCN(C)C)CC2)nc2ccccc12 [Compound 5jjj] | – | – | 8 ± 0.8 µM | – | – | > 30 µM | 5.5 ± 0.8 µM | 5.4 ± 0.6 µM | 4.9 ± 1.7 µM | 5.3 ± 0.5 µM
CC[C@@]1(O)C(=O)OCc2c1cc1n(c2=O)Cc2cc3ccccc3nc2-1 [CPT, (+)-camptothecin, reference compound] | 0.2 ± 0.1 µM | > 30 µM | 6 ± 2.7 µM | 0.3 ± 0.1 µM | 2.8 ± 0.7 µM | 2.8 ± 1.5 µM | – | – | – | –
